Molecular target: Arabidopsis thaliana SHMT
Assay: SHMT activity assay (ED50 SHMT), coupled with N5,N10-CH2-THF dehydrogenase, NADH at 340 nm
Format: biochemical
Settings: Table 2; values given as upper bounds
Protocol: Determination of the ED50 SHMT was carried out as described hereinunder.
Purification of Arabidopsis thaliana SHMT
The following buffers were used during the purification protocol:
Buffer A (Lysis and Wash Buffer): • 20 mM Na-Phosphat (pH 7,4) • 500 mM NaCI • 40 mM Imidazole • 1.0 mM L-Serine • 0.5 mM Pyridoxal-5-phosphate • 0.5 mM DTT
Buffer B (Elution Buffer): • 20 mM Na-Phosphat (pH 7,4) • 500 mM NaCl • 250 mM Imidazole • 1.0 mM L-Serine • 0.5 mM Pyridoxal-5-phosphate • 0.5 mM DTT
All procedures were conducted at 4° C. or on ice. Pellets were suspended in Buffer A containing 1 mg/ml DNAse +Complete EDTA-free protease inhibitor tablet. Cells were lysed using sonication or a French Press device, using standard settings. Lysis was centrifuged at 40000×g for 25 minutes. The supernatant was filtered (0.22 μM) before loading onto a Ni-NTA column.
A gravity flow column containing Ni-NTA resin was equilibrated with 10 CV Buffer A and loaded with filtered cell lysate. The column was then washed with 10 CV Buffer A. Elution was afforded using Buffer B and collected manually as mini-factions. EDTA was added after elution to a final concentration of 1 mM. Fractions were pooled on the basis of the correct band for SHMT visualised via SDS-PAGE and staining.
SHMT Assay Buffer: • 50 mM KH2PO4 (pH 7,4) • 2.0 mM NAD+ • 7.5 mM DTT • 0.3 mM Tetrahydrofolic acid • 4% DMSO
Reaction Start: 20 mM L-Serine
The rate of N5,N10-CH2-THF formation catalyzed by SHMT was monitored at 340 nm by coupling with excess N5,N10-CH2-THF dehydrogenase, which converts NAD+to NADH. Reactions were initiated by adding 20 mM L-Serine. Inhibition of initial velocity was determined by adding various inhibitors of the SHMT reaction and monitored as described. Reactions were measured in a Bio Tek micro titer plate reader following the change in absorption with the formation of NADH for 30 mimnutes.

EC50 | Compound
< 1 µM | CCC1(c2ccc(O)c(C)c2)C(C#N)=C(N)Oc2[nH]nc(C)c21 (stereo not shown) [Compound 2.25.]
< 10 µM | CCC1(c2ccc(OS(=O)(=O)CC)cc2)C(C#N)=C(N)Oc2[nH]nc(C)c21 (stereo not shown) [Compound 2.26.]
< 1 µM | CCC1(c2ccc(OCc3ccccc3)cc2)C(C#N)=C(N)Oc2[nH]nc(C)c21 (stereo not shown) [Compound 2.28.]
< 10 µM | CCC1(c2ccc(C(F)(F)F)c(F)c2)C(C#N)=C(N)Oc2[nH]nc(C)c21 (stereo not shown) [Compound 2.29.]
< 10 µM | CCC1(c2ccc(C(F)(F)F)cc2)C(C#N)=C(N)Oc2[nH]nc(C)c21 (stereo not shown) [Compound 2.30.]
< 1 µM | CCC1(c2cccc(C(F)(F)F)c2)C(C#N)=C(N)Oc2[nH]nc(C)c21 (stereo not shown) [Compound 2.31.]
< 10 µM | CCC1(c2ccc(OC(F)F)cc2)C(C#N)=C(N)Oc2[nH]nc(C)c21 (stereo not shown) [Compound 2.32.]
< 0.1 µM | CCC1(c2cc(F)cc(C(F)(F)F)c2)C(C#N)=C(N)Oc2[nH]nc(C)c21 (stereo not shown) [Compound 2.33.]
< 10 µM | CCC1(c2cc(F)c(O)c(F)c2)C(C#N)=C(N)Oc2[nH]nc(C)c21 (stereo not shown) [Compound 2.34.]
< 1 µM | CCC1(c2cccc(-c3ccccc3)c2)C(C#N)=C(N)Oc2[nH]nc(C)c21 (stereo not shown) [Compound 2.35.]
< 10 µM | CCCCCCOc1ccc(C2(CC)C(C#N)=C(N)Oc3[nH]nc(C)c32)cc1 (stereo not shown) [Compound 2.36.]
< 1 µM | CCC1(c2ccc(O)c([N+](=O)[O-])c2)C(C#N)=C(N)Oc2[nH]nc(C)c21 (stereo not shown) [Compound 2.37.]
< 10 µM | CCC1(c2ccc(NC(=O)C(C)(C)C)cc2)C(C#N)=C(N)Oc2[nH]nc(C)c21 (stereo not shown) [Compound 2.39.]
< 1 µM | CCC1(c2ccc([N+](=O)[O-])cc2)C(C#N)=C(N)Oc2[nH]nc(C)c21 (stereo not shown) [Compound 2.40.]
< 1 µM | CCC1(c2ccc(-c3ccccc3F)cc2)C(C#N)=C(N)Oc2[nH]nc(C)c21 (stereo not shown) [Compound 2.44.]
< 1 µM | CCC1(c2cc(F)c(OC)c(F)c2)C(C#N)=C(N)Oc2[nH]nc(C)c21 (stereo not shown) [Compound 2.45.]

EC50 | Compound
< 1 µM | Cc1n[nH]c2c1C(c1ccc(Cl)cc1)(C1CC1)C(C#N)=C(N)O2 (stereo not shown) [Compound 2.46.]
< 0.1 µM | CCC1(c2cc(C(F)(F)F)cc(C(F)(F)F)c2)C(C#N)=C(N)Oc2[nH]nc(C)c21 (stereo not shown) [Compound 2.47.]
< 10 µM | CCC1(c2ccc(OC(=O)c3c(Cl)cccc3Cl)c(C)c2)C(C#N)=C(N)Oc2[nH]nc(C)c21 (stereo not shown) [Compound 2.48.]
< 1 µM | CCC1(c2ccc(OC(=O)c3ccccc3)c(C)c2)C(C#N)=C(N)Oc2[nH]nc(C)c21 (stereo not shown) [Compound 2.49.]
< 1 µM | CCC1(c2ccc(OC(=O)C(C)(C)C)c(C)c2)C(C#N)=C(N)Oc2[nH]nc(C)c21 (stereo not shown) [Compound 2.52.]
< 1 µM | CCC1(c2ccc(OS(=O)(=O)C(C)C)c(C)c2)C(C#N)=C(N)Oc2[nH]nc(C)c21 (stereo not shown) [Compound 2.54.]
< 1 µM | CCC1(c2ccc(OS(=O)(=O)Cc3ccccc3)c(C)c2)C(C#N)=C(N)Oc2[nH]nc(C)c21 (stereo not shown) [Compound 2.55.]
< 10 µM | CCC1(c2ccc(OS(=O)(=O)c3ccc(Cl)c(Cl)c3)c(C)c2)C(C#N)=C(N)Oc2[nH]nc(C)c21 (stereo not shown) [Compound 2.56.]
< 10 µM | CCC1(c2ccc(OS(=O)(=O)c3ccc(Cl)cc3)c(C)c2)C(C#N)=C(N)Oc2[nH]nc(C)c21 (stereo not shown) [Compound 2.57.]
< 1 µM | CCC1(c2ccc(OS(=O)(=O)c3ccccc3)c(C)c2)C(C#N)=C(N)Oc2[nH]nc(C)c21 (stereo not shown) [Compound 2.58.]
< 10 µM | CCC1(c2ccc(OS(=O)(=O)c3ccc(Cl)cc3Cl)c(C)c2)C(C#N)=C(N)Oc2[nH]nc(C)c21 (stereo not shown) [Compound 2.59.]
< 1 µM | Cc1n[nH]c2c1C(c1cccc(C(F)(F)F)c1)(C1CC1)C(C#N)=C(N)O2 (stereo not shown) [Compound 2.60.]
< 1 µM | Cc1n[nH]c2c1C(c1cc(Cl)cc(Cl)c1)(C1CC1)C(C#N)=C(N)O2 (stereo not shown) [Compound 2.61.]
< 10 µM | CCC1(c2cc(Cl)cc(Cl)c2)C(C#N)=C(N)Oc2[nH]ncc21 (stereo not shown) [Compound 2.62.]
< 10 µM | CCC1(c2cccc(C(F)(F)F)c2)C(C#N)=C(N)Oc2[nH]ncc21 (stereo not shown) [Compound 2.63.]
